According to US4068074A, “Cephalosporin derivatives having at the 3-position of the cephem ring a heterocyclic thiomethyl group with a carboxy or sulfo group and at the 7-position of the cephem ring an α-heterocylic acylaminophenyl-acetamide group” (priority 1974, dated 1978):
Values after ≈ are worked out from the molar mass of the structure shown. Where two headings read alike, the source gives them in different places.

Tests used:
[1] = tested on: Escherichia coli kauffmann 0-1; experiment: MIC against bacteria (Table I), strain (7); assay type: cell-based; conditions: Escherichia coli
Text: (§1) Now, for illustrating the excellent pharmacological effects of the compounds of this invention, the values of MIC (γ/ml.) of the compounds against various bacteria are shown in Table 1, in which the compounds of this invention used are shown by example numbers.
(7) Escherichia coli kauffmann 0-1

[2] = tested on: Staphylococcus aureus 209P; experiment: MIC against bacteria (Table I), strain (16); assay type: cell-based
Text: as §1
(16) Staphylococcus aureus 209P

[3] = Residual antibacterial activity after incubation with 10% liver homogenate (Table 4); assay type: in vitro ADME, male Sprague-Dowley rat; conditions: for remaining at 0.25 h / remaining at 0.5 h / remaining at 1.5 h: 10% liver homogenate
Experimental: (§2) The relation between the reaction period of time and the antibacterial activity (residual activity, %) when these compounds are incubated with the plasma and the liver homogenate of a male Sprague-Dowley rat is shown in Table 4. The residual antibacterial activity was measured by a thin-layer cup method according to Bacillus subtilis ATCC 6633.
B*Residual activity (%) when incubated with 10% liver homogenate.

[4] = tested on: β-lactamase isolated from Pseudomonas aeruginosa 21; experiment: Resistance to β-lactamase: amount of unaltered test sample (Table 3); assay type: biochemical; conditions: initial concentration 100γ/ml
Text: For example, the relation between the amount (γ/ml) of an unaltered test sample at an initial concentration of the sample 100γ/ml against β-lactamase isolated from Pseudomonas aeruginosa 21 at various dilutions of the enzyme were investigated.

[5] = tested on: Shigella flexneri 2a 1675; experiment: MIC against bacteria (Table I), strain (11); assay type: cell-based; conditions: 2A1675; (11) Shigella flexneri 2a 1675; read-out: MIC
Text: as §1

[6] = tested on: Pseudomonas aeruginosa 99 (Gentamycin resistant); experiment: MIC against bacteria (Table I), strain (5); assay type: cell-based
Text: as §1
(5) Pseudomonas aeruginosa 99 (Gentamycin resistant)

[7] = tested on: Bacillus subtilis ATCC 6633; experiment: MIC against bacteria (Table I), strain (14); assay type: cell-based; conditions: ATCC6633
Text: as §1
(14) Bacillus subtilis ATCC 6633

[8] = Residual antibacterial activity after incubation with 90% plasma (Table 4); assay type: in vitro ADME, male Sprague-Dowley rat; conditions: 90% rat plasma; for remaining at 0.25 h / remaining at 0.5 h / remaining at 1.5 h: 90% plasma; for remaining at 0.25 h: 15 minute; for remaining at 0.5 h: 30 minute; for remaining at 1.5 h: 90 minute; for Residual activity: 0 minute
Experimental: as §2
A*Residual activity (%) when incubated with 90% plasma.

[9] = tested on: Pseudomonas aeruginosa ATCC 8689; experiment: MIC against bacteria (Table I), strain (4); assay type: cell-based; conditions: ATCC8689
Text: as §1
(4) Pseudomonas aeruginosa ATCC 8689

[10] = tested on: Staphylococcus Shimanishi; experiment: MIC against bacteria (Table I), strain (17); assay type: cell-based; conditions: Staphylococcus
Text: as §1
(17) Staphylococcus Shimanishi

[11] = tested on: Klebsiella pneumoniae ATCC 10031; experiment: MIC against bacteria (Table I), strain (8); assay type: cell-based; conditions: Klebsiella pneumoniae, ATCC10031
Text: as §1
(8) Klebsiella pneumoniae ATCC 10031

Salmonella enteritidis = experiment: MIC against bacteria (Table I), strain (10); assay type: cell-based; conditions: Salmonella enterica, ENTERITIDIS
Text: as §1
(10) Salmonella enteritidis

[12] = assay type: in vitro ADME
Text: Still another advantage of the compounds of this invention is that they are not inactivated in the internal organs of the body. For example, when the compounds of this invention and cephalotin are each homogenized with internal organs, the compounds of this invention are not decomposed while cephalotin is decomposed.

Salmonella typhi H901 W = experiment: MIC against bacteria (Table I), strain (9); assay type: cell-based; conditions: Salmonella enterica, TYPHI
Text: as §1
(9) Salmonella typhi H901 W

Proteus vulgaris 0X 19US = experiment: MIC against bacteria (Table I), strain (2); assay type: cell-based; conditions: 0X19US
Text: as §1
(2) Proteus vulgaris 0X 19US

Staphylococcus Onuma = experiment: MIC against bacteria (Table I), strain (18); assay type: cell-based
Text: as §1
(18) Staphylococcus Onuma

Shigella sonnei II 37148 = experiment: MIC against bacteria (Table I), strain (12); assay type: cell-based; conditions: II37148; (12) Shigella sonnei II 37148; read-out: MIC
Text: as §1

Proteus vulgaris OXK US = experiment: MIC against bacteria (Table I), strain (1); assay type: cell-based; conditions: (1) Proteus vulgaris OXK US; read-out: MIC
Text: as §1
(1) Proteus vulgaris OXK US

[13] = tested on: Micrococcus flavus ATCC 10240; experiment: MIC against bacteria (Table I), strain (15); assay type: cell-based; conditions: Micrococcus flavus, ATCC10240
Text: as §1
(15) Micrococcus flavus ATCC 10240

[14] = tested on: Proteus mirabilis IXM OM-19; experiment: MIC against bacteria (Table I), strain (3); assay type: cell-based; conditions: IXMOM19; (3) Proteus mirabilis IXM OM-19; read-out: MIC
Text: as §1
(3) Proteus mirabilis IXM OM-19

[15] = tested on: Bacillus megatherium 10778; experiment: MIC against bacteria (Table I), strain (13); assay type: cell-based; conditions: (13) Bacillus megatherium 10778; read-out: MIC
Text: as §1

[16] = tested on: Psuedomonas ovalis IMA 1002; experiment: MIC against bacteria (Table I), strain (6); assay type: cell-based; conditions: (6) Psuedomonas ovalis IMA 1002; read-out: MIC
Text: as §1
(6) Psuedomonas ovalis IMA 1002

[17] = Solubility of salts in water (Table 2); assay type: physicochemical; conditions: disodium salt, water, showing pH 7.4; read-out: Solubility: disodium salt dissolved in water in an amount of
Text: An advantage of the compounds of this invention is that the salts, for example, sodium salts of these compounds are readily soluble in water at pH of living bodies, which makes them suitable for injections at high concentration. The solubility of these compounds are illustrated in Table 2 together with a control example.

Structure (SMILES) | MIC [1] [µg/mL] | Amount of unaltered test sample ([4]; β-lactamase dilution ×2) [µg/mL] | Amount of unaltered test sample ([4]; β-lactamase dilution ×4) [µg/mL] | Amount of unaltered test sample ([4]; β-lactamase dilution ×8) [µg/mL] | Amount of unaltered test sample ([4]; β-lactamase dilution ×16) [µg/mL] | Amount of unaltered test sample ([4]; β-lactamase dilution ×32) [µg/mL] | Amount of unaltered test sample ([4]; β-lactamase dilution ×64) [µg/mL] | Amount of unaltered test sample ([4]; β-lactamase dilution ×128) [µg/mL] | Amount of unaltered test sample ([4]; β-lactamase dilution ×256) [µg/mL] | Amount of unaltered test sample ([4]; β-lactamase dilution ×512) [µg/mL] | Amount of unaltered test sample ([4]; β-lactamase dilution ×1024) [µg/mL] | MIC [5] [µg/mL] | remaining at 0.25 h [8] [%] | remaining at 0.5 h [8] [%] | remaining at 1.5 h [8] [%] | Residual activity [8] [%] | MIC [10] [µg/mL] | MIC [11] [µg/mL] | MIC (Salmonella enteritidis) [µg/mL] | MIC (Salmonella typhi H901 W) [µg/mL] | also measured
CC(=O)OCC1=C(C(=O)O)N2C(=O)[C@@H](NC(=O)Cc3cccs3)[C@H]2SC1 [Cephalotin, reference compound] | 3.13 (≈ 7.9 µM) | 0 | 0 | 0 | 0 | 2.6 | 11.8 | 46.8 | 81.6 | 100 | 100 | 6.25 (≈ 15.8 µM) | 87 | 66 | 36 | 100 | 0.39 (≈ 0.984 µM) | 0.78 (≈ 1.97 µM) | 0.39 (≈ 0.984 µM) | 1.56 (≈ 3.93 µM) | MIC ([2]; Staphylococcus aureus, 209P): 0.19 µg/mL (≈ 0.479 µM); Residual activity ([3]; rat, 0 min): 100%; remaining at 0.25 h ([3]; rat): 17.2%; remaining at 0.5 h ([3]; rat): 12.2%; remaining at 1.5 h ([3]; rat): 12.6%; MIC ([6]; Pseudomonas aeruginosa): > 100 µg/mL; MIC ([7]; Bacillus subtilis): < 0.09 µg/mL; MIC ([9]; Pseudomonas aeruginosa): > 100 µg/mL; Decomposition when homogenized with internal organs [12]: decomposed; MIC (Proteus vulgaris 0X 19US; Proteus vulgaris): 12.5 µg/mL (≈ 31.5 µM); MIC (Staphylococcus Onuma; Staphylococcus): 0.39 µg/mL (≈ 0.984 µM); MIC (Shigella sonnei II 37148): 6.25 µg/mL (≈ 15.8 µM)
O=C(O)CSc1nnc(SCC2=C(C(=O)O)N3C(=O)[C@@H](NC(=O)[C@H](NC(=O)c4cnccc4O)c4ccccc4)[C@H]3SC2)s1 [Example 4, 7-[D-α-(4-hydroxynicotinoylamido)-α-phenylacetamido]-3-(5-carboxymethylthio-1,3,4-thiadiazol-2-yl)thiomethyl-Δ^3-cephem-4-carboxylic acid] | 3.13 (≈ 4.64 µM) | 0 | 29.6 | 61.0 | 100 | 100 | 100 | 100 | 100 | 100 | 100 | 0.78 (≈ 1.16 µM) | 97 | 93.9 | 103 | 100 | 3.13 (≈ 4.64 µM) | 3.13 (≈ 4.64 µM) | 0.39 (≈ 0.578 µM) | 1.56 (≈ 2.31 µM) | MIC ([2]; (16) Staphylococcus aureus 209P, read-out: MIC): 0.78 µg/mL (≈ 1.16 µM); remaining at 0.25 h ([3]; 10% rat liver homogenate, 15 minute, read-out: Residual activity): 93.5%; remaining at 0.5 h ([3]; 10% rat liver homogenate, 30 minute, read-out: Residual activity): 91.3%; remaining at 1.5 h ([3]; 10% rat liver homogenate, 90 minute, read-out: Residual activity): 102%; Residual activity ([3]; 10% rat liver homogenate, 0 minute): 100%; MIC ([6]; (5) Pseudomonas aeruginosa 99 (Gentamycin resistant), read-out: MIC): 6.25 µg/mL (≈ 9.26 µM); MIC ([7]; (14) Bacillus subtilis ATCC 6633, read-out: MIC): 0.19 µg/mL (≈ 0.282 µM); MIC (Proteus vulgaris OXK US): < 0.09 µg/mL; MIC ([9]; (4) Pseudomonas aeruginosa ATCC 8689, read-out: MIC): 12.5 µg/mL (≈ 18.5 µM); MIC [13]: 3.13 µg/mL (≈ 4.64 µM); MIC [14]: 0.39 µg/mL (≈ 0.578 µM); MIC [15]: 0.19 µg/mL (≈ 0.282 µM); MIC (Proteus vulgaris 0X 19US; (2) Proteus vulgaris 0X 19US, read-out: MIC): 0.19 µg/mL (≈ 0.282 µM); MIC (Staphylococcus Onuma; (18) Staphylococcus Onuma, read-out: MIC): 6.25 µg/mL (≈ 9.26 µM); MIC [16]: 6.25 µg/mL (≈ 9.26 µM); MIC (Shigella sonnei II 37148): 3.13 µg/mL (≈ 4.64 µM); solubility [17]: > 200 mg/mL
